In US6011041A, “Use of anhydrovinblastine” (priority 1996, dated 2000):
Counter-ions that a name gives are not always drawn. Like-named read-outs stand apart in the source and are kept apart here.

Assays:
[1] = system: H460 human non-small cell lung carcinoma; test: MTT dose response cytotoxicity, H460 (Table 1); assay type: cell-based; conditions: read-out: DRUG IC50
Method: (§1) Cytotoxicity experiments on AHVB were performed as direct comparisons with vincristine and navelbine in order to assess its inherent antineoplastic profile against a variety of tumour cell types relative to other relevant vinca alkaloids. The cytotoxicity of AHVB was investigated in vitro against a panel of tumour cell lines of varying lineage in order to determine the specificity of its antitumour activity with respect to cell type. The tumour lines studied were P388 lymphocytic leukemia (a murine lymphocytic leukemia), Noble (Nb) rat U17 lymphoma, MCF7 human breast carcinoma, H460 human non-small cell lung carcinoma, K562 human erythrokeukemia and LS180 human colon carcinoma based on established NCI in vitro new anticancer drug cytotoxicity screening protocols.
(§2) Standard dose response cytotoxicity assays (R. Mosmass, J. Immunol. Meth., 65:55-64, 1983) were utilized to determine the IC50 (drug concentration required to induce 50% inhibition of tumour cell growth) for vincristine, navelbine and AHVB. The indicated cell lines were obtained from either the ATCC or NCI tumor repository and were cultured in tissue culture media by standard techniques well known to those skilled in the art, prior to dilution to a defined cell concentration required for the studies in 96 well plates.
(§3) A wide range of drug concentrations were exposed to tumour cells growing at log phase in 96-well microtitre plates. Cell concentrations depended on the cell line as well as the length of time to be cultured. Typically, P388 cells were plated at a concentration of 30,000, 2,000 and 750 cells per well for studies lasting 1, 3 and 7 days, respectively MCF7 cells were plated at a concentration of 7,000 and 1,500 cells per well for studies lasting 3 and 7 days, respectively. H460 cells were plated at a concentration of 2,500 and 1,000 cells per well for studies lasting 3 and 7 days, respectively. K562 cells were plated at a concentration of 1,500 and 10,000 cells per well for studies lasting 1 and 3 days, respectively. LS180 cells were plated at a concentration of 5,000 and […] cells per well for studies lasting 3 and 7 days, respectively. After plating all cell lines were incubated (CO2 incubator at 37° C., 5% CO2) for 24 hours prior to addition of the cytotoxic agent (See Table 1). Subsequently the plates were incubated for the indicated time period. At specified times, cells were washed and subsequently exposed to the dye inclusion marker MTT (3-(4,5-dimethylthiazol-2-yl)-2,5diphenyl tetrazolium), which accumulated into viable cells. MTT was added to the cells at a final concentration of 50 μg per well. After a 4 hour incubation, the cells were washed free of media and unreacted MTT, prior to addition of DMSO which was required to solubilize the insoluble formazan precipitate that formed in viable cells. After the sample was mixed through repeated pipetting, the colored product was measured using a plate reader operating at 570 nm. The absorbance values obtained for cells cultured in the absence of drug was assumed to represent 100% viability. Experiments were repeated to substantiate any differences noted between […] and other vinca alkaloids.

[2] = system: K562 human erythroleukemia; test: MTT dose response cytotoxicity, K562 (Table 1); assay type: cell-based; conditions: read-out: DRUG IC50
Method: as §1, §2, §3

[3] = acute (14 day) single dose toxicity in healthy male Nb rats (Table 2); assay type: in vivo, rat; conditions: rat, in vivo, ip; male Nb rats, single i.p. injection; read-out: subacutely toxic dosage (highest dose which allowed survival of all animals in a group, 3 out of 3)
Method: (§4) Range-finding acute (14 day), single dose toxicity studies were performed in healthy male Nb rats in order to determine the maximum tolerated dose of vincristine sulfate, navelbine and AHVB when administered as a single, intraperitoneal injection in these rodents (see Table 2). To this end, healthy non-tumor bearing male Nb rats (weight range 333-399 grams) were divided in groups of 3 animals. Each group was used to test one drug at one dosage. The volumes within which the drugs were administered depended on the concentration of the drug solution (in saline) and the weight of the animals, and ranged from 0.1-1.0 ml. Saline was used as a control. The highest dose of each drug which allowed survival of all animals in a group (3 out of 3) was taken as the subacutely toxic dosage for the drug, i.e. 0.7 mg/kg for vincristine, 2.0 mg/kg for navelbine and 3.0 mg/kg for AHVB.
(§5) The health of the animals was assessed by daily weight measurements in addition to behavioral indications of stress. Animals continued to be monitored throughout the complete 14 day study period. Animals were euthanized in the event of signs of severe stress or weight loss in excess of 20%. All animals were necropsied at the end of the study period or at the time of premature euthanasia.

[4] = system: healthy male Nb rats; test: as above; assay type: in vivo, rat; conditions: single i.p. injection
Method: as §4, §5

[5] = weight loss / toxicity in BDF1 mice bearing P388 tumours (FIG. 4); assay type: in vivo
Method: Groups (five mice per group) of female BDFI mice (Charles Rivers, Canada) were injected (intraperitoneal) with 10^6 P388 cells (as described above). One day after tumor cell inoculation, the mice were given a bolus intravenous injection of indicated drug via the lateral tail vein. Control groups were injected with saline. Free drug samples were prepared on the day of injection such that the final concentrations were sufficient to deliver the indicated drug dose in a volume of 200 μl. All dilutions were made using 0.9% Sodium Chloride Injection USP. The mice were briefly (less than 30 sec.) restrained during intravenous injections. Dilation of the vein was achieved by holding the animals under a heat lamp for a period of between five and ten minutes. Following administration of the test articles, animals were weighed daily for fourteen days and monitored for signs of stress twice daily for the first 14 days (once daily on weekends) and once daily for the remainder of the study. Severely distressed animals were terminated by CO2 asphyxiation and the time of death was recorded to occur on the following day. Although complete dose titrations were completed for each drug, the data shown in FIG. 6 is that obtained after administration of the free drugs at their maximum tolerated dose. This was 3, 40 and 40 mg/kg for vincristine, navelbine and AHVB, respectively.
After treating mice (bearing the P388 tumor) with a single dose of the indicated drug, animals were examined twice daily for the first 14 days (once daily on weekends). Weight gain in the control is an indication of tumor progression.
The studies were conducted as described for FIG. 6. The maximum tolerated dose of AHVB (40 mg/kg) as specified in these studies reflects a very acute (within 1 hour) toxic reaction that limits further dose excalatin for i.v. administration of AHVB.

[6] = system: murine P388 leukemia; conditions: cited from earlier work
[7] = cited from earlier work; for dose limiting toxicity: humans
[8] = system: fast axoplasmic transport in nerve cells; conditions: cited from earlier work
[9] = system: human rhabdosarcomas; conditions: in vivo; cited from earlier work
[10] = NCI-H460, 72 h, H460, exposure time 3 days
[11] = NCI-H460, 168 h, H460, exposure time 7 days
[12] = 24 h, K562, exposure time 1 day
[13] = 72 h, K562, exposure time 3 days

## CCC1=CC2CN(CCc3c([nH]c4ccccc34)C(C(=O)OC)(c3cc4c(cc3OC)N(C)C3C(O)(C(=O)OC)C(OC(C)=O)C5(CC)C=CCN6CCC43C65)C2)C1 (stereo not drawn) [AHVB, 3',4'-anhydrovinblastine]
[1]; NCI-H460, 72 h
  IC50: 10 nM
[1]; NCI-H460, 168 h
  IC50: 5 nM
[2]; K562, 24 h
  IC50: > 50 nM
[2]; K562, 72 h
  IC50: 18.8 ± 8.8 nM
[3]
  MTD at 336 h: 3 mg/kg
[4]; 3.0 mg/kg
  Mortality (surviving rats/injected rats): 3/3
[4]; 4.4 mg/kg
  Mortality (surviving rats/injected rats): 0/1
[4]; 10.0 mg/kg
  Mortality (surviving rats/injected rats): 0/3
[5]; i.v., at maximum tolerated dose 40 mg/kg
  time of very acute toxic reaction that limits dose escalation: ≤ 1 h
[5]; single i.v. injection at maximum tolerated dose, AHVB 40 mg/kg
  toxicity ranking (vinca alkaloid induced weight loss): least toxic of the three drugs evaluated

## CCC1=C[C@@H]2CN(C1)Cc1c([nH]c3ccccc13)[C@@](C(=O)OC)(c1cc3c(cc1OC)N(C)[C@H]1[C@@](O)(C(=O)OC)[C@H](OC(C)=O)[C@]4(CC)C=CCN5CC[C@]31[C@@H]54)C2 [navelbine, 3',4'-didehydro-4'-deoxy-C'-norvincaleukoblastine-di-L-tartrate]
[6]
  potency against murine P388 leukemia: less potent than vinbiastine and vincristine
[1]; [10]
  IC50: 0.3 nM
[1]; [11]
  IC50: > 0.5 nM
[2]; [12]
  IC50: > 50 nM
[2]; [13]
  IC50: 2.5 ± 2.2 nM
[7]
  dose limiting toxicity: hematological toxicities and not neurological side effects
[7]; intravenous
  local side effects: phlebitia or extravasion injury as it is a moderate vasicant
[7]; patients, relative to nausea
  incidence of constipation, vomiting, diarrhea, anorexia, and stomatitis: slightly lesser fraction
[7]; patients
  incidence of mild to moderate nausea: roughly one-third
[7]; single agent
  incidence of mild to moderate peripheral neuropathy (paresthesia and hypesthesia): 10 % of patients
[3]
  MTD at 336 h: 2 mg/kg
[4]; 2.0 mg/kg
  Mortality (surviving rats/injected rats): 3/3
[4]; 5.0 mg/kg
  Mortality (surviving rats/injected rats): 0/3
[5]; i.v., compared with acute toxicity of AHVB
  toxicity at maximum tolerated dose: more prolonged toxicity

## CC[C@]1(O)C[C@H]2CN(CCc3c([nH]c4ccccc34)[C@@](C(=O)OC)(c3cc4c(cc3OC)N(C=O)[C@H]3[C@@](O)(C(=O)OC)[C@H](OC(C)=O)[C@]5(CC)C=CCN6CC[C@]43[C@@H]65)C2)C1 [vincristine, Sulfate of 22-oxovincaleukoblastine]
[1]; [10]
  IC50: 3.5 nM
[1]; [11]
  IC50: 2.5 nM
[2]; [12]
  IC50: > 50 nM
[2]; [13]
  IC50: 1.5 ± 0.4 nM
[8]
  potency in blocking fast axoplasmic transport: more potent than vinblastine or vindesine
[7]
  dose limiting toxicity: peripheral neuropathy (in the absence of hematological toxicity)
[7]; i.v.
  other adverse reactions reported: abdominal cramps, ataxia, foot drop, weight loss, optic atrophy with blindness, transient cortical blindness, fever, cranial nerve manifestations, parehesia and numbness of the digits, polyuria, dysuria, oral ulceration, headache, vomiting, diarrhea, and intestinal necrosis and/or perforation
[7]; intrathecal
  intrathecal administration outcome: uniformly fatal
[7]; single weekly doses, i.v.
  adverse reactions that can occur with single weekly doses: leukopenia, neuritic pain, constipation, and difficulty in walking
[7]; single weekly doses
  most common adverse reaction: hair loss
  most troublesome adverse reactions: neuromuscular in origin
[3]
  MTD at 336 h: 0.7 mg/kg
[4]; 0.5 mg/kg
  Mortality (surviving rats/injected rats): 3/3
[4]; 0.7 mg/kg
  Mortality (surviving rats/injected rats): 3/3
[9]
  activity in human rhabdosarcomas transplanted in nude mice: very effective
